In US20230172204A1 (BASF SE, priority 2020, published 2023):

Legend:
[1] = system: Phakopsora pachyrhizi (F129L); assay: Protective control of soybean rust on soybeans (PHAKPA P2); format: in vivo; conditions: for % PHAKPA (F129L) Disease level P2 at 4 ppm: protective P2, 4 ppm; for % PHAKPA (F129L) Disease level P2 at 4 ppm / % PHAKPA (F129L) Disease level P2 at 16 ppm: soybean rust F129L; for % PHAKPA (F129L) Disease level P2 at 16 ppm: protective P2, 16 ppm; for PHAKPA (F129L) Disease level (%) P2 at 4 ppm / PHAKPA (F129L) Disease level (%) P2 at 16 ppm: P2 protective, % diseased leaf area
[2] = system: Phakopsora pachyrhizi (F129L); assay: Protective control of soybean rust on soybeans (PHAKPA P6); format: in vivo; conditions: for % PHAKPA (F129L) Disease level P6 at 4 ppm: protective P6, 4 ppm; for % PHAKPA (F129L) Disease level P6 at 4 ppm / % PHAKPA (F129L) Disease level P6 at 16 ppm: soybean rust F129L; for % PHAKPA (F129L) Disease level P6 at 16 ppm: protective P6, 16 ppm; for PHAKPA (F129L) Disease level (%) P6 at 4 ppm / PHAKPA (F129L) Disease level (%) P6 at 16 ppm: P6 protective, % diseased leaf area

| Compound | % PHAKPA (F129L) Disease level P2 at 4 ppm [1] | % PHAKPA (F129L) Disease level P2 at 16 ppm [1] | % PHAKPA (F129L) Disease level P6 at 4 ppm [2] | % PHAKPA (F129L) Disease level P6 at 16 ppm [2] | PHAKPA (F129L) Disease level (%) P2 at 4 ppm [1] | PHAKPA (F129L) Disease level (%) P6 at 4 ppm [2] | PHAKPA (F129L) Disease level (%) P2 at 16 ppm [1] | PHAKPA (F129L) Disease level (%) P6 at 16 ppm [2] |
| --- | --- | --- | --- | --- | --- | --- | --- | --- |
| C#Cc1ccc(/C(C)=N/OCc2c(C)cccc2/C(=N\OC)C(=O)NC)cc1 [compound 196] | 1% | 0% | 11% | 5% |  |  |  |  |
| CO/N=C(/C(=O)OC)c1cccc(C)c1CO/N=C(\C)c1c(F)cccc1Cl [compound 283] | 83% | 30% | 87% | 22% |  |  |  |  |
| CNC(=O)/C(=N/OC)c1cccc(C)c1CO/N=C(\C)c1cc(C)cc(C)c1 [compound 99] | 43% | 12% | 87% | 33% |  |  |  |  |
| CO/N=C(/C(=O)OC)c1cccc(C)c1CO/N=C(\C)c1ccc(C)c(C)c1 [compound 137] | 19% | 2% | 50% | 5% |  |  |  |  |
| CNC(=O)/C(=N/OC)c1cccc(C)c1CO/N=C(\C)c1ccc(F)cc1OC(F)(F)F [compound 378] | 18% | 1% | 17% | 1% |  |  |  |  |
| CNC(=O)/C(=N/OC)c1cccc(C)c1CO/N=C(\C)c1cccc(F)c1F [compound 178] | 6% | 0% | 2% | 0% |  |  |  |  |
| CNC(=O)/C(=N/OC)c1cccc(C)c1CO/N=C(\C)c1cccc(Br)c1 [Ex. 58] | 2% | 0% | 4% | 0% | 0% | 4% |  |  |
| CO/N=C(/C(=O)OC)c1cccc(C)c1CO/N=C(\C)c1ccccc1C(F)(F)F [Ex. 36] | 100% | 42% | 100% | 43% |  |  | 47% | 57% |
| CNC(=O)/C(=N/OC)c1cccc(C)c1CO/N=C(\C)c1ccc(F)c(F)c1 [compound 132] | 1% | 0% | 6% | 0% |  |  |  |  |
| CO/N=C(/C(=O)OC)c1cccc(C)c1CO/N=C(\C)c1c(F)ccc(C(F)(F)F)c1F [compound 156] | 27% | 0% | 47% | 3% |  |  |  |  |
| CNC(=O)/C(=N/OC)c1cccc(C)c1CO/N=C(\C)c1cc(Cl)cc(Cl)c1F [compound 167] | 2% | 0% | 9% | 0% |  |  |  |  |
| C#Cc1ccccc1/C(C)=N/OCc1c(C)cccc1/C(=N\OC)C(=O)NC [compound 125] | 72% | 9% | 90% | 44% |  |  |  |  |
| CO/N=C(/C(=O)OC)c1cccc(C)c1CO/N=C(\C)c1cccc(-c2cc(C)on2)c1 [compound 43] | 100% | 100% | 97% | 87% |  |  |  |  |
| CO/N=C(/C(=O)OC)c1ccccc1CO/N=C(\C)c1cccc(C#N)c1 [reference compound] |  |  |  |  |  |  | 80% | 43% |
| CNC(=O)/C(=N/OC)c1cccc(C)c1CO/N=C(\C)c1cc(C(F)(F)F)cc(F)c1F [compound 197] | 0% | 0% | 2% | 0% |  |  |  |  |
| CNC(=O)/C(=N/OC)c1ccccc1CO/N=C(\C)c1ccccc1OC [reference compound] |  |  |  |  |  |  | 87% | 80% |
| CNC(=O)/C(=N/OC)c1cccc(C)c1CO/N=C(\C)c1cc(Cl)c(F)c(Cl)c1 [compound 247] | 16% | 2% | 33% | 8% |  |  |  |  |
| CNC(=O)/C(=N/OC)c1cccc(C)c1CO/N=C(\C)c1c(F)cccc1OC(F)F [compound 202] | 90% | 22% | 100% | 47% |  |  |  |  |

| Compound | % PHAKPA (F129L) Disease level P2 at 4 ppm [1] | % PHAKPA (F129L) Disease level P2 at 16 ppm [1] | % PHAKPA (F129L) Disease level P6 at 4 ppm [2] | % PHAKPA (F129L) Disease level P6 at 16 ppm [2] | PHAKPA (F129L) Disease level (%) P2 at 4 ppm [1] | PHAKPA (F129L) Disease level (%) P6 at 4 ppm [2] | PHAKPA (F129L) Disease level (%) P2 at 16 ppm [1] | PHAKPA (F129L) Disease level (%) P6 at 16 ppm [2] |
| --- | --- | --- | --- | --- | --- | --- | --- | --- |
| CO/N=C(/C(=O)OC)c1cccc(C)c1CO/N=C(\C)c1ccc(F)cc1F [compound 266] | 67% | 18% | 90% | 43% |  |  |  |  |
| CO/N=C(/C(=O)OC)c1cccc(C)c1CO/N=C(\C)c1cc(F)cc(F)c1 [compound 87] | 8% | 0% | 7% | 0% |  |  |  |  |
| CO/N=C(/C(=O)OC)c1cccc(C)c1CO/N=C(\C)c1cc(Cl)c(F)c(Cl)c1 [compound 246] | 40% | 15% | 77% | 7% |  |  |  |  |
| CNC(=O)/C(=N/OC)c1cccc(C)c1CO/N=C(\C)c1ccc(F)cc1 [compound 108] | 1% | 0% | 1% | 0% |  |  |  |  |
| CO/N=C(\C)c1ccc(/C(C)=N/OCc2c(C)cccc2/C(=N\OC)C(=O)OC)cc1 [Ex. 181] | 22% | 11% | 33% | 5% |  |  | 12% | 5% |
| CO/N=C(/C(=O)OC)c1cccc(C)c1CO/N=C(\C)c1cccc(C(F)F)c1 [compound 19] | 87% | 0% | 87% | 1% |  |  |  |  |
| CO/N=C(/C(=O)OC)c1cccc(C)c1CO/N=C(\C)c1cccc(C#CC(F)(F)F)c1 [compound 52] | 63% | 28% | 90% | 43% |  |  |  |  |
| C#Cc1ccccc1/C(C)=N/OCc1c(C)cccc1/C(=N\OC)C(=O)OC [compound 122] | 100% | 73% | 93% | 90% |  |  |  |  |
| CO/N=C(/C(=O)OC)c1cccc(C)c1CO/N=C(\C)c1cccc(CC2COC2)c1 [compound 160] | 100% | 97% | 87% | 90% |  |  |  |  |
| CNC(=O)/C(=N/OC)c1cccc(C)c1CO/N=C(\C)c1cc(Br)cc(F)c1F [compound 241] | 3% | 0% | 33% | 12% |  |  |  |  |
| CO/N=C(/C(=O)OC)c1cccc(C)c1CO/N=C(\C)c1ccccc1C1CC1 [compound 217] | 97% | 53% | 93% | 100% |  |  |  |  |
| CNC(=O)/C(=N/OC)c1cccc(C)c1CO/N=C(\C)c1cc(C#N)cc(C(F)(F)F)c1 [compound 46] | 63% | 50% | 90% | 57% |  |  |  |  |
| CNC(=O)/C(=N/OC)c1cccc(C)c1CO/N=C(\C)c1cccc(/C(C)=N/OC)c1 [Ex. 15] | 4% | 0% | 24% | 1% |  |  |  |  |
| CNC(=O)/C(=N/OC)c1cccc(C)c1CO/N=C(\C)c1ccccc1OC [Ex. 126] | 87% | 34% | 95% | 70% |  |  | 32% | 60% |
| CNC(=O)/C(=N/OC)c1cccc(C)c1CO/N=C(\C)c1cccc(C2CC2)c1 [compound 299] | 53% | 13% | 53% | 22% |  |  |  |  |
| CNC(=O)/C(=N/OC)c1cccc(C)c1CO/N=C(\C)c1cc(C(F)(F)F)ccc1C1CC1 [compound 185] | 100% | 67% | 90% | 77% |  |  |  |  |
| CNC(=O)/C(=N/OC)c1ccccc1CO/N=C(\C)c1ccc(Cl)cc1 [reference compound] |  |  |  |  | 40% | 80% |  |  |
| CO/N=C(/C(=O)OC)c1cccc(C)c1CO/N=C(\C)c1cccc(Cl)c1C(F)(F)F [compound 421] | 100% | 33% | 87% | 57% |  |  |  |  |
